According to PubChem BioAssay (NCI):
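Test compounds were applied to cells in 96-well plates for 48 hours at 5 doses. Here, GI50 denotes the concentration required for 50% inhibition of growth. At the TGI there is no net growth.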

Assays:
Assay in all cases: NCI-60 cell line screen, 48 h
[1] = system: COLO 205 colon
[2] = system: DU-145 prostate
[3] = system: SK-MEL-28 melanoma
[4] = system: BT-549 breast
[5] = system: OVCAR-3 ovarian
[6] = system: MOLT-4 leukemia
[7] = system: 786-0 renal
[8] = system: SNB-19 CNS
[9] = system: DMS 114 small cell lung
[10] = system: DMS 273 small cell lung

| SMILES | GI50 [1] [µM] | TGI [1] [µM] | GI50 [2] [µM] | TGI [2] [µM] | GI50 [3] [µM] | TGI [3] [µM] | GI50 [4] [µM] | TGI [4] [µM] | GI50 [5] [µM] | TGI [5] [µM] | GI50 [6] [µM] | TGI [6] [µM] | GI50 [7] [µM] | TGI [7] [µM] | GI50 [8] [µM] | TGI [8] [µM] | TGI [9] [µM] | TGI [10] [µM] |
| --- | --- | --- | --- | --- | --- | --- | --- | --- | --- | --- | --- | --- | --- | --- | --- | --- | --- | --- |
| O=S(=O)(NC(=S)Nc1ccccc1)c1ccc(N2N=C3c4ccccc4CC3C2c2ccc(Cl)cc2)cc1 (configuration not stated) | 21.6 | 44.3 | 24.9 | 51.4 | 29.4 | 77 | 33.2 | 78.3 | 46.3 | > 100 | 15.9 | 39.3 | 32.4 | > 100 | 21.8 | 46.4 |  |  |
| CCOC(=O)CNC(SC)=C(C#N)C#N |  | > 100 |  |  |  |  |  |  |  | > 100 |  | > 100 |  | > 100 |  | > 100 | > 100 | > 100 |
| O=C1OCC2=C1C(c1cccc(F)c1)c1cc3c(cc1N2CCO)OCCO3 (configuration not stated) | 0.204 | 7.43 | 0.22 | > 50 | 1.5 | > 50 | 0.417 | 11.4 | 0.142 |  | 0.301 | > 50 | 0.208 | > 50 | 0.275 | > 50 |  |  |
| COc1ccc(N2CCN(CC(=O)N3CCN(c4nnc(-c5ccccc5)c(-c5ccccc5)n4)CC3)CC2)cc1 | 3.25 | 13.7 | 16.2 | > 100 | 11.9 | > 100 | 3.47 | 33 | 4.92 | > 93.4 | 4.79 | > 71 | 4.91 | > 100 | > 33.6 | > 100 |  |  |
| N/C(=N\OC(=O)NC(Cl)=C(Cl)Cl)c1cc(C(F)(F)F)cc(C(F)(F)F)c1 |  | 33.4 |  | 27 |  | 32.8 |  | 41.2 |  | 28.6 |  | 29.6 |  | 31.2 |  | 50.5 |  |  |
| CC(=O)OCCC/C(=C\c1ccc2ccccc2c1)[N+](=O)[O-] | 1.57 | 3.43 | 1.65 | 3.4 | 1.26 | 2.84 | 1.72 | 3.42 | 1.52 | 3.08 | 4.87 | > 100 | 1.81 | 3.35 | 1.77 | 3.28 |  |  |
| CSc1nc2c(nc(N)n2C2OCC(O)C(O)C2O)c(=O)[nH]1 (configuration not stated) |  | > 100 |  |  |  | > 100 |  |  |  | > 100 |  | > 100 |  | > 100 |  | > 100 | > 100 |  |
| NC1=CC(=O)C(=O)c2cccnc21 | 16.6 | 30.1 | 4.94 | 16.3 | 2.6 | 6.38 | 4.73 | 18.7 | 12.9 | 29.4 | 3.15 | 8.41 | 14.8 | 28 | 5.86 | 21.6 |  |  |
| CC(C)(C)c1ccc(C(=O)N/N=C/c2ccc(O)cc2O)cc1 | 0.377 | 6.76 | 0.564 | 14 | 0.595 | 13.9 | 0.933 | 9.53 | 0.28 | 2.06 | 0.346 | 14.9 | 0.53 | 3.3 | 0.825 | 17.9 |  |  |
| Clc1ccccc1-c1nc2ccccc2[nH]1 | > 100 | > 100 | > 100 | > 100 | > 100 | > 100 | > 100 | > 100 | > 100 | > 100 | > 100 | > 100 | > 100 | > 100 | > 100 | > 100 |  |  |
| CC12C=CC(C)(O1)C1C2c2ccccc2S1(=O)=O (configuration not stated) | > 100 | > 100 | 50.3 | > 100 | 91.9 | > 100 | 21.6 | 81.6 | 52.7 | > 100 | 62.7 | > 100 | > 100 | > 100 | > 100 | > 100 |  |  |
| O=C(N/C(=C\c1ccc([N+](=O)[O-])cc1)c1nc2[nH]c(=S)[nH]c(=O)c2[nH]1)c1ccccc1 |  | > 100 |  |  |  | > 100 |  |  |  | > 100 |  | > 100 |  | > 100 |  | > 100 | > 100 |  |
| Cn1cc(-c2csc(-c3cn(CCN4CCOCC4)c4ccc(F)cc34)n2)c2cccnc21 | 2.08 | 5.23 | 3.12 | > 100 | 3.01 | 12.3 | 2.18 | 6.21 | 2.71 | 9.27 | 1.79 | 4.46 | 2.91 | 11.4 | 3.93 | > 100 |  |  |
| COc1ccc(/C=C/c2nc(N3CCOCC3)c3cc(F)c(F)cc3n2)cc1OC | 3.47 | 20.7 | 8.79 | > 100 | 5.53 | > 100 | 2.83 | 19.8 | 6.08 | > 100 | 4.11 | > 100 | 4.44 | > 100 | 5.2 | > 100 |  |  |
| O=C(CCCn1ccnc1[N+](=O)[O-])NCCn1cnc([N+](=O)[O-])c1 |  | > 100 |  | > 100 |  | > 100 |  | > 100 |  | > 100 |  | > 100 |  | > 100 |  | > 100 |  |  |
| COc1cc(/C=C/C(=O)c2c(C)n([O-])c3cc(C)c(C)cc3[n+]2=O)cc(OC)c1OC | 20.7 | 67.4 | 13.1 | 30.8 | 19 | 46.7 | 11.8 | 30.8 | 16.8 | 41.6 | 6.77 | > 100 | 19.2 | 46.1 | 16.9 | 39.9 |  |  |
